The supplement of paper PMC10307832

What was measured:
Assay in all cases: relative viability (nuclei count vs DMSO), 5 days (fraction); higher = more cells survive
RO-3306 + Bortezomib = compound: C1=CC2=C(C=CC(=C2)C=C3C(=O)NC(=NCC4=CC=CS4)S3)N=C1 [RO-3306] + CC(C)C[C@H](NC(=O)[C@H](Cc1ccccc1)NC(=O)c1cnccn1)B(O)O [Bortezomib] (partner 0.002 µM)
Procedure, shortened: (§1)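 Lung cancer cell lines, seeded in 1536-well plates, were treated the following day by pin tool with a single drug or with five library-drug doses (not always all listed) in √10 steps on top of a fixed anchor-drug dose. Cells were fixed and nuclei stained in one step after 5 days, and nuclei were counted. Relative viability is the nuclei count for treated wells divided by that for vehicle wells, reported as medians of duplicate plates.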

RO-3306 + Vorinostat = compound: C1=CC2=C(C=CC(=C2)C=C3C(=O)NC(=NCC4=CC=CS4)S3)N=C1 [RO-3306] + O=C(CCCCCCC(=O)Nc1ccccc1)NO [Vorinostat] (partner 1 µM)
Procedure, shortened: as §1

[1] = compound: O=S(=O)(c1ccccc1)N(CC(F)(F)F)c1ccc(C(O)(C(F)(F)F)C(F)(F)F)cc1 + CS(=O)(=O)N1CCN(Cc2cc3nc(-c4cccc5[nH]ncc45)nc(N4CCOCC4)c3s2)CC1 [Pictilisib] (partner 1 µM)
Procedure, shortened: as §1

[2] = compound: O=S(=O)(c1ccccc1)N(CC(F)(F)F)c1ccc(C(O)(C(F)(F)F)C(F)(F)F)cc1 + NC(=O)Nc1cc(-c2cccc(F)c2)sc1C(=O)N[C@H]1CCCNC1 [AZD7762] (partner 0.2 µM)
Procedure, shortened: as §1

Cell Line | relative viability (RO-3306 + Bortezomib; first compound 0.01 µM) | relative viability (RO-3306 + Bortezomib; first compound 0.03162 µM) | relative viability (RO-3306 + Bortezomib; first compound 0.1 µM) | relative viability (RO-3306 + Bortezomib; first compound 0.3162 µM) | relative viability (RO-3306 + Bortezomib; first compound 1 µM) | relative viability (RO-3306 + Vorinostat; first compound 0.01 µM) | relative viability (RO-3306 + Vorinostat; first compound 0.1 µM) | relative viability (RO-3306 + Vorinostat; first compound 0.3162 µM) | relative viability (RO-3306 + Vorinostat; first compound 1 µM) | relative viability ([1]; first compound 0.8 µM) | relative viability ([1]; first compound 2.53 µM) | relative viability ([1]; first compound 8 µM) | relative viability ([2]; first compound 0.8 µM) | relative viability ([2]; first compound 2.53 µM) | relative viability ([2]; first compound 8 µM) | relative viability (RO-3306 + Vorinostat; first compound 0.03162 µM)
EKVX | 1.23 | 0.923 | 1.06 | 1.12 | 0.989 | 0.75 | 0.739 | 0.663 | 0.712 | 0.367 | 0.363 | 0.303 | 0.664 | 0.708 | 0.503 | 
NCI-H1975 | 0.468 | 0.358 | 0.343 | 0.417 | 0.243 | 0.608 | 0.685 | 0.701 | 0.69 | 0.28 | 0.264 | 0.249 | 0.632 | 0.519 | 0.669 | 0.624
HCC-78 | 0.433 | 0.362 | 0.511 | 0.572 | 0.543 | 0.428 | 0.367 | 0.494 | 0.418 | 0.157 | 0.193 | 0.252 | 0.647 | 0.552 | 0.535 | 0.457
LXF-289 | 0.992 | 0.928 | 1.05 | 0.95 | 0.929 | 0.789 | 0.695 | 0.749 | 0.744 | 0.624 | 0.637 | 0.588 | 0.981 | 0.937 | 0.974 | 0.807
RERF-LC-KJ | 1.3 | 0.952 | 1.01 | 0.987 | 1.01 | 0.725 | 0.67 | 0.687 | 0.63 | 0.557 | 0.453 | 0.5 | 0.973 | 0.889 | 0.825 | 0.64
BEN | 0.795 | 0.724 | 0.867 | 0.849 | 0.747 | 0.565 | 0.562 | 0.595 | 0.55 | 0.585 | 0.533 | 0.616 | 0.724 | 0.717 | 0.689 | 0.543
ABC-1 | 0.262 | 0.396 | 0.28 | 0.287 | 0.274 | 1.21 | 1.03 | 1.13 | 0.781 | 0.7 | 0.602 | 0.755 | 0.709 | 1.64 | 1.2 | 1
H3255 | 0.747 | 0.707 | 0.738 | 0.792 | 0.677 | 0.788 | 0.802 | 0.826 | 0.819 | 0.492 | 0.51 | 0.396 | 0.787 | 0.666 | 0.76 | 0.743
NCI-H1355 | 1.5 | 1.15 | 1.17 | 1.18 | 1.2 | 0.694 | 0.644 | 0.6 | 0.591 | 0.415 | 0.389 | 0.491 | 0.789 | 0.733 | 0.703 | 0.538
HCC-366 | 1.05 | 0.633 | 1.01 | 1.16 | 1.06 | 0.454 | 0.25 | 0.378 | 0.308 | 0.181 | 0.165 | 0.135 | 0.277 | 0.317 | 0.14 | 0.279
NCI-H1437 | 0.57 | 0.346 | 0.529 | 0.582 | 0.484 | 0.848 | 0.807 | 0.751 | 0.688 | 0.374 | 0.327 | 0.412 | 1.08 | 0.995 | 0.849 | 0.782
LOU-NH91 | 0.557 | 0.491 | 0.441 | 0.483 | 0.442 | 0.857 | 0.854 | 0.871 | 0.866 | 0.539 | 0.564 | 0.515 | 0.801 | 0.8 | 0.796 | 0.828
LC-2-ad | 1.1 | 0.976 | 0.965 | 1.09 | 0.712 | 0.773 | 0.78 | 0.695 | 0.626 | 0.469 | 0.377 | 0.437 | 0.89 | 0.779 | 0.702 | 0.635
PC-3 [JPC-3] | 0.936 | 0.82 | 0.965 | 0.865 | 0.805 | 0.649 | 0.648 | 0.735 | 0.524 | 0.737 | 0.829 | 0.697 |  | 0.763 | 0.75 | 0.629
NCI-H1734 | 0.956 | 0.763 | 0.866 | 0.885 | 0.597 | 0.802 | 0.733 | 0.828 | 0.734 | 0.549 | 0.48 | 0.429 | 0.617 | 0.67 | 0.343 | 0.631
HOP-62 | 0.505 | 0.961 | 0.674 | 0.882 | 1.03 | 0.615 | 0.486 | 0.611 | 0.638 | 1.07 | 0.361 | 0.763 | 0.649 | 0.517 | 0.598 | 0.44
NCI-H650 | 0.662 | 0.635 | 0.703 | 0.764 | 0.694 | 0.406 | 0.41 | 0.428 | 0.415 | 0.913 | 0.842 | 0.885 | 0.814 | 1.22 | 0.996 | 0.376
NCI-H1993 |  | 1.11 | 1.02 | 0.887 | 0.777 | 0.82 | 0.751 | 0.822 | 0.716 | 0.772 | 0.782 | 1.07 | 0.69 | 0.657 | 0.774 | 0.707
NCI-H647 | 1.13 | 0.889 | 1.04 | 0.931 | 0.751 | 0.708 | 0.371 | 0.6 | 0.473 | 0.323 | 0.345 | 0.372 | 0.483 | 0.388 | 0.535 | 0.512
EPLC-272H | 0.735 | 0.526 | 0.825 | 0.769 | 0.843 | 0.243 | 0.386 | 0.382 | 0.198 | 0.316 | 0.302 | 0.35 | 0.226 | 0.203 | 0.203 | 0.479
NCI-H3122 | 0.952 | 1.01 | 1.06 | 1.03 | 0.738 | 1.07 | 0.993 | 1.19 | 1.06 | 0.477 | 0.447 | 0.416 | 1.02 | 0.935 | 0.801 | 0.825
NCI-H322M | 1.17 | 1.12 | 1.19 | 1.32 | 1.22 | 0.878 | 0.807 | 0.868 | 0.584 | 0.551 | 0.529 | 0.541 | 0.542 | 0.643 | 0.583 | 0.859
NCI-H727 | 0.878 | 0.733 | 0.84 | 0.817 | 0.948 | 1.08 | 1.02 | 1.3 | 1.06 | 0.758 | 0.261 | 0.353 | 0.549 | 0.604 | 0.526 | 1.25
LU99A | 1.38 | 1.09 | 1.04 | 0.98 | 1.07 | 0.648 | 0.461 | 0.432 | 0.388 | 0.296 | 0.293 | 0.271 | 0.459 | 0.401 | 0.318 | 0.626
201T | 1.11 | 1.11 | 1.07 | 1.11 | 0.934 | 1.03 | 0.959 | 1.03 | 1.02 | 0.632 | 0.628 | 0.82 | 0.797 | 0.617 | 0.637 | 0.974
LCLC-97TM1 | 1.06 |  | 0.689 | 0.455 | 0.531 | 0.804 | 0.694 | 0.789 | 1.1 | 0.174 | 0.218 | 0.187 |  | 0.241 | 0.234 | 0.546
PC-14 | 1.16 |  | 0.991 | 0.941 | 0.865 | 1.03 | 0.72 | 0.796 | 0.682 | 0.743 | 0.557 | 0.339 | 0.216 | 0.228 | 0.216 | 0.682
NCI-H1651 | 0.887 | 0.877 | 0.923 | 0.853 | 0.858 | 0.559 | 0.529 | 0.544 | 0.511 | 0.681 | 0.598 | 0.598 | 0.471 | 0.449 | 0.39 | 0.535
HCC-15 | 1.04 | 0.804 | 1.01 | 1.06 | 0.727 | 0.923 | 0.898 | 0.854 | 0.773 | 0.785 | 0.684 | 0.654 | 1.18 | 1.17 | 1.16 | 0.712
NCI-H1755 | 1.13 | 0.983 | 0.976 | 0.936 | 0.978 | 0.881 | 0.771 | 0.745 | 0.706 | 0.376 | 0.361 | 0.382 | 0.468 | 0.421 | 0.485 | 0.856
